Results taken from ChEMBL document CHEMBL4017543, “Inhibitors to Overcome Secondary Mutations in the Stem Cell Factor Receptor KIT” (J Med Chem, 2017).

Assays:
[1] = molecular target: Mast/stem cell growth factor receptor Kit (Homo sapiens, UniProt P10721); test: Inhibition of wild type KIT (unknown origin) using biotinylated poly-Glu-Tyr as substrate preincubated for 30 mins followed by substrate addition in presence of ATP by TR-FRET assay
GISTT1 [2] = test: Cytotoxicity against human GISTT1 cells assessed as cell growth inhibition after 72 hrs by CellTiterGlo assay; format: functional; details: GISTT1, 72 h
[3] = molecular target: Mast/stem cell growth factor receptor Kit (Homo sapiens, UniProt P10721, T670I/V559D)
[4] = molecular target: Mast/stem cell growth factor receptor Kit (Homo sapiens, UniProt P10721, D816H); test: Inhibition of KIT D816H mutant (unknown origin) using biotinylated poly-Glu-Tyr as substrate preincubated for 30 mins followed by substrate addition in presence of ATP by TR-FRET assay; details: read-out: IC50
GISTT1 [5] = test: Cytotoxicity against human GISTT1 cells harboring KIT T670I mutant assessed as cell growth inhibition after 72 hrs by CellTiterGlo assay; format: functional; details: GISTT1, 72 h
[6] = system: Mast/stem cell growth factor receptor Kit (Homo sapiens), P10721 [V654A]; details: GIST430
[7] = Intrinsic clearance in human liver microsomes at 3 uM after 60 mins by LC-MS analysis; format: ADME, microsome; details: read-out: CLH
[8] = Protein binding in human plasma at 5 uM after 6 hrs by equilibrium dialysis method; format: ADME, cell-free; details: read-out: PPB (converted)
[9] = Intrinsic clearance in mouse liver microsomes at 3 uM after 60 mins by LC-MS analysis; format: ADME, microsome; details: read-out: CLH
[10] = Metabolic stability in mouse plasma assessed as compound remaining at 5 uM after 60 mins by LC-MS analysis; format: ADME, cell-free; details: read-out: Stability
[11] = Metabolic stability in human plasma assessed as compound remaining at 5 uM after 60 mins by LC-MS analysis; format: ADME, cell-free; details: read-out: Stability
[12] = Protein binding in mouse plasma at 5 uM after 6 hrs by equilibrium dialysis method; format: ADME, cell-free; details: read-out: PPB (converted)
GISTT1 [13] = test: Cytotoxicity against human GISTT1 cells harboring KIT D816E mutant assessed as cell growth inhibition after 72 hrs by CellTiterGlo assay; format: functional; details: GISTT1, 72 h
[14] = molecular target: Mast/stem cell growth factor receptor Kit (Homo sapiens, UniProt P10721, V559D/V654A)
[15] = Efflux ratio of apparent permeability across basolateral to apical over apical to basolateral side in human Caco2 cells at 10 uM after 2 hrs by LC-MS/MS; format: ADME, cell-based; details: Caco-2
[16] = Cytotoxicity against human GIST48B cells assessed as cell growth inhibition after 72 hrs by CellTiterGlo assay; format: cell-based; details: GIST48B cells

Mast/stem cell growth factor receptor Kit (Homo sapiens, UniProt P10721), sequence (P10721 whole entry): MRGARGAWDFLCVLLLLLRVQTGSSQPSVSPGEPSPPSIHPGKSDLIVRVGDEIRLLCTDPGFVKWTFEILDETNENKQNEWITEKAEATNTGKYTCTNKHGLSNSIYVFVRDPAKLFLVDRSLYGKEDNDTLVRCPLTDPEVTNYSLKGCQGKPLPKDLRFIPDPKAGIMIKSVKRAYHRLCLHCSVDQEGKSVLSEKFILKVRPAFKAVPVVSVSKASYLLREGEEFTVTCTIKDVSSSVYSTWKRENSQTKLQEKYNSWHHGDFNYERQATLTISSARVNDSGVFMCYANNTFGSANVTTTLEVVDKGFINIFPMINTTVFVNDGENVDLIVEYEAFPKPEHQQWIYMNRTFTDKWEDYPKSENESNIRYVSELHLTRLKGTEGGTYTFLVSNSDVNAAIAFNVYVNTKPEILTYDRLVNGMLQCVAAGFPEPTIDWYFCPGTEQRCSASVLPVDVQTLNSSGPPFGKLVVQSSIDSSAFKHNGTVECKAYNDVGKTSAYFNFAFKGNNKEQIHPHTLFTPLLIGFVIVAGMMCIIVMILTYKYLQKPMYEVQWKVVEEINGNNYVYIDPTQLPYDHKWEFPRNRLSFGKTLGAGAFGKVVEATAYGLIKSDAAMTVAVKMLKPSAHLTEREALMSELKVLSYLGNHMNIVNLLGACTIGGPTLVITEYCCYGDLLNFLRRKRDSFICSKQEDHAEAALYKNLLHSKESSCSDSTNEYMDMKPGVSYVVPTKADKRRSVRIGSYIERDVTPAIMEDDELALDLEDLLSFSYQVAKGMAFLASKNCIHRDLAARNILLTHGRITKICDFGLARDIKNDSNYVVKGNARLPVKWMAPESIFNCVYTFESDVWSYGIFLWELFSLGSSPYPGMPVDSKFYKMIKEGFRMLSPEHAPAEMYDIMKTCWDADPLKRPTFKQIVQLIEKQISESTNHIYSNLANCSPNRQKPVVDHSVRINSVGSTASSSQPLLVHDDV
Mast/stem cell growth factor receptor Kit (Homo sapiens, UniProt P10721, D816H), sequence (P10721 26-976 D816H limits assumed): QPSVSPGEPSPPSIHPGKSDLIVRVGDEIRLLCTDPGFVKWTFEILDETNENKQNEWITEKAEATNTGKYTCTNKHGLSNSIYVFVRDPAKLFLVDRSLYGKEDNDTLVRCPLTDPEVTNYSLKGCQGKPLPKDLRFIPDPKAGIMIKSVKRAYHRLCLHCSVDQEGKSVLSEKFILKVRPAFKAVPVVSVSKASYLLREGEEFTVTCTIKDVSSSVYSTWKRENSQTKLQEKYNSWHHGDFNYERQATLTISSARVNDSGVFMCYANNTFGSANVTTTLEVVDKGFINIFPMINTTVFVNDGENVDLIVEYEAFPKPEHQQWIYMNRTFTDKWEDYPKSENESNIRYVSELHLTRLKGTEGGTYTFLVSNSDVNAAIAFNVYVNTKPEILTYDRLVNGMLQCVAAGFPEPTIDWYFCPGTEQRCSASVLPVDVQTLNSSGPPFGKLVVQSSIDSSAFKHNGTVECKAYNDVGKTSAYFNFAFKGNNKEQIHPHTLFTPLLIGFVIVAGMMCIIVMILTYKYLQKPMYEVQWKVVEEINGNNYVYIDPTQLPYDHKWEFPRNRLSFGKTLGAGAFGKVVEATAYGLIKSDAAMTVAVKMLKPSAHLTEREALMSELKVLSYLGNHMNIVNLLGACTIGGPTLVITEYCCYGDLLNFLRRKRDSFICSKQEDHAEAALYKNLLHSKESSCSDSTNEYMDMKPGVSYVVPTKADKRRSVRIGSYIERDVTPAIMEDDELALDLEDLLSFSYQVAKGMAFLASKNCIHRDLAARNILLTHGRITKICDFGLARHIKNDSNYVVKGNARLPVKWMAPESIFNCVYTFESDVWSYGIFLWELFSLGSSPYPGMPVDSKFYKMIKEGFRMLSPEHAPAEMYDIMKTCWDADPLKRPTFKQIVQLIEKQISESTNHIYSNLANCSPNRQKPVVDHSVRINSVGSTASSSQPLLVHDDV
Mast/stem cell growth factor receptor Kit (Homo sapiens, UniProt P10721, T670I/V559D), sequence (P10721 26-976 V559D/T670I limits assumed): as the sequence (P10721 26-976 D816H limits assumed) above, with V534D, T645I, H791D counted along it
Mast/stem cell growth factor receptor Kit (Homo sapiens), P10721 [V654A], sequence (P10721 whole entry V654A): as the sequence (P10721 whole entry) above, with V654A counted along it
Mast/stem cell growth factor receptor Kit (Homo sapiens, UniProt P10721, V559D/V654A), sequence (P10721 26-976 V559D/V654A limits assumed): as the sequence (P10721 26-976 D816H limits assumed) above, with V534D, V629A, H791D counted along it

IC50 [1] [nM]	IC50 [3] [nM]	IC50 [4] [nM]	GI50 [6] [nM]	microsomal CLint at 3 µM [7] [µL/min/mg]	fraction unbound at 6 h, 5 µM [8]	microsomal CLint at 3 µM [9] [µL/min/mg]	remaining at 1 h, 5 µM [10] [%]	remaining at 1 h, 5 µM [11] [%]	fraction unbound at 6 h, 5 µM [12]	IC50 [14] [nM]	efflux ratio at 2 h, 10 µM [15]	SMILES	GI50 (GISTT1 [2]) [nM]	GI50 (GISTT1 [5]) [nM]	GI50 (GISTT1 [13]) [nM]	GI50 at 72 h [16] [nM]
6.2	21	326	308	9	0.016	36	84	59	0.016	1080	< 1	Cc1c(C#Cc2cnc(N)nc2)cccc1C(=O)Nc1ccc(CN2CCN(C)CC2)c(C(F)(F)F)c1	35	51	381	15800
1.9	21.4	42.2	51	1	0.004	–	50	91	0.004	247	< 1	Cc1ccc(C(=O)Nc2ccc(CN3CCN(C)CC3)c(C(F)(F)F)c2)cc1C#Cc1cnc(N)nc1	23	44	141	2020
